Tests used:
in vivo [1] = conditions: Sprague-Dawley, rat, po, 30 mg/kg
[2] = Plasma concentration in Sprague-Dawley rat at 30 mg/kg, po measured after 6 hrs by LC-MS/MS analysis
in vivo [3] = conditions: Sprague-Dawley, rat, po, 30 mg/kg; remark: listed apart in the source
[4] = Metabolic stability in rat liver microsomes assessed as compound remaining at 1 ug/ml incubated for 30 mins by LC-MS/MS analysis; conditions: at 1 µg/mL
[5] = rat, in vivo, iv, 1 mg/kg, 6 h
Huh-7 = test: Cytotoxicity against human HuH-7 cells by MTT assay
in vivo [6] = conditions: Sprague-Dawley, rat, po, 30 mg/kg; remark: listed apart in the source
in vivo [7] = conditions: Sprague-Dawley, rat, po, 30 mg/kg; remark: listed apart in the source
[8] = Metabolic stability in mouse liver microsomes assessed as compound remaining at 1 ug/ml incubated for 30 mins by LC-MS/MS analysis; conditions: at 1 µg/mL
Bile acid receptor [9] = molecular target: T1, Bile acid receptor (Homo sapiens, UniProt Q96RI1); test: Antagonist activity at recombinant GST-tagged FXR LBD (unknown origin) assessed as inhibition of GW4064-induced Fluorecein-SRC2-2 coactivator peptide recruitment by LanthaScreen TR-FRET co-regulator assay
T1 sequence (Q96RI1 whole entry): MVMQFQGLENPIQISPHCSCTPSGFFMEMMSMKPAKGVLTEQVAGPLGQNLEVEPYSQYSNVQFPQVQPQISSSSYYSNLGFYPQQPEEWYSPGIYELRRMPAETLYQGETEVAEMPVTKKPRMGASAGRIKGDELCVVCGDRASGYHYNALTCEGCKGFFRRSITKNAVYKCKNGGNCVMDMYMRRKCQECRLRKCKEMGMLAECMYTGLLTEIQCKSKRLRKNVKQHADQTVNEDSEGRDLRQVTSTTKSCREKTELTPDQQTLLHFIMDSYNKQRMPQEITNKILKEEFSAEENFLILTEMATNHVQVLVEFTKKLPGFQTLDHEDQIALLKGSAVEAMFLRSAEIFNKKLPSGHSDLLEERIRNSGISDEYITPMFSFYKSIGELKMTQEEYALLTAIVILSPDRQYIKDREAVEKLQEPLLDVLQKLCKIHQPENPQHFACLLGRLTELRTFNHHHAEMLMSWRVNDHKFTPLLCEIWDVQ

Bile acid receptor [10] = molecular target: T1, Bile acid receptor; test: Antagonist activity against recombinant human FXR transfected in human HuH-7 cells co-transfected with FRE-luciferase assessed as reduction in CDCA-induced luciferase expression incubated for 24 hrs by luciferase reporter gene assay

In the case of `CC(C)C(=O)N1CCC(C[C@@H](c2nc3ccc(F)cc3n2C2CC2)N2C(=O)CN(c3ccc(Oc4ccc(F)cc4)cc3)C2=O)CC1`, the Tmax at 6 h (in vivo [1]) is reported as 3 h, the concentration at 6 h [2] is reported as 2480 ng/mL and the bioavailability at 6 h (in vivo [3]) is reported as 55.4%. The remaining at 0.5 h, 1 ug/ml [4] was 84.4%, the AUC [5] was 937 ng·h/mL and the IC50 (Huh-7) was greater than 100000 nM. For the same compound, the Cmax at 6 h (in vivo [6]) was 2850 ng/mL, the AUC(0-t) at 6 h (in vivo [7]) was 15600 ng·h/mL and the remaining at 0.5 h, 1 ug/ml [8] was 54%.
For `Cc1ccc2nc([C@H](CC3CCN(C(=O)C(C)C)CC3)N3C(=O)CN(c4ccc(Oc5ccc(F)cc5)cc4)C3=O)n(C)c2c1`, the IC50 (Huh-7) was greater than 100000 nM and the remaining at 0.5 h, 1 ug/ml [8] was 10.6%.
Work on `CC(C)C(=O)N1CCC(C[C@@H](c2nc3ccccc3n2C2CC2)N2C(=O)CN(c3ccc(Oc4ccc(F)cc4)cc3)C2=O)CC1` yielded an IC50 (Huh-7) greater than 100000 nM, an IC50 (Bile acid receptor [9]) of 140 nM and an IC50 (Bile acid receptor [10]) of 1.8 nM. For the same compound, the remaining at 0.5 h, 1 ug/ml [8] was 29.4%.
For `COc1ccc(Oc2ccc(N3CC(=O)N([C@@H](CC4CCN(C(=O)C(C)C)CC4)c4nc5ccc(C)cc5n4C)C3=O)cc2)cc1`, the Tmax at 6 h (in vivo [1]) was 2 h, the bioavailability at 6 h (in vivo [3]) was 18% and the remaining at 0.5 h, 1 ug/ml [4] was 12.1%. The IC50 (Huh-7) was greater than 100000 nM, the Cmax at 6 h (in vivo [6]) was 483 ng/mL and the IC50 (Bile acid receptor [10]) was less than 0.001 nM. The remaining at 0.5 h, 1 ug/ml [8] was 2.4%.
